Measurements from patent US9114177B2, “Block copolymer having phenylboronic acid group introduced therein, and use thereof” (THE UNIVERSITY OF TOKYO, priority 2011, dated 2015).

What was measured:
[1] = cited from earlier work
[2] = Blood retention properties of complex; format: in vivo; settings: mice, tail vein, 20 μg siRNA
Experimental: The block copolymer (PEG-PLL 12-23/43) and Cy5-GL3-siRNA were added to a 10 mM HEPES buffer (pH 7.3) so as to achieve an N/P ratio of 8 and an siRNA concentration of 7.5 μM, and the resultant was mixed and left to stand still for about 1 to 2 hours at room temperature to prepare a complex solution. The complex solution or a solution of the siRNA (10 mM HEPES buffer) was administered to the tail veins of mice (female Balb/C nude, 6-week-old, N=4) so that the dose was 20 μg of the siRNA, and the amount of the siRNA remaining in blood was determined over time.

[3] = siRNA diffusion time of block copolymer/siRNA complexes in serum solution (complex stability); format: physicochemical; settings: siRNA not mixed with block copolymer, 50 nM, serum solution (10% FBS)
Experimental: A variety of block copolymers having different amino acid polymerization degrees and FPBA group contents were prepared as mentioned in Sections (1-i) to (1-iii) and (2-i) to (2-iii). It should be noted that PEG having a molecular weight (Mw) of 12,000 was used as methoxy-PEG-NH2. The block copolymers were mixed with siRNA fluorescently labeled with Cy3 so as to achieve an N/P ratio of 8. The resultant mixtures were left to stand still in a refrigerator for 1 to 2 hours and diluted with a serum solution (150 mM NaCl, 10 mM Hepes, 10% FBS) so as to achieve an siRNA concentration of 50 nM. The resultant diluted solutions were left to stand still at room temperature for about 1 hour, and the siRNA diffusion time was measured with a confocal laser scanning microscope (manufactured by Carl Zeiss, product name “LSM510”) (10 sec×10 times). It should be noted that, when the measurement was carried out in the same manner as above except that siRNA was not mixed with the block copolymer, the diffusion time (diffusion time of siRNA alone) was 157.5 μsec. It should be noted that GL3-siRNA was used as the siRNA.

Row | Molecule | pKa [1] | siRNA remaining in blood at 10 minutes after administration [2] | siRNA remaining in blood at 1 hour after administration [2] | diffusion time of siRNA alone [3] [μsec]
1 | OB(O)c1ccccc1 [phenylboronic acid] | 8 to 9 |  |  | 
2 | GL3-siRNA: siRNA for firefly luciferase, SEQ ID NO: 5 and 6, fluorescently labelled (Cy3 or Cy5), tested alone (chain 1 CUUACGCUGACUACUUCGAUU; chain 2 UCGAAGUACUCAGCGUAAGUU; sense strand 5' end labeled with Cy3 (or Cy5), further chemistry not given here) |  | about 10% | almost no siRNA remained | 157.5
